# Test results from ChEMBL document CHEMBL1949655, “Neomycin-phenolic conjugates: polycationic amphiphiles with broad-spectrum antibacterial activity, low hemolytic activity and weak serum protein binding” (Bioorg Med Chem Lett, 2012).
# Experiments:
# Acinetobacter baumannii [1] = experiment: microbe, parasite or virus in culture; type: functional; settings: isolate CAN-ICU 63169, 24 h
# Description: Antibacterial activity against Acinetobacter baumannii isolate CAN-ICU 63169 after 24 hrs by macrobroth dilution method in the presence of bovine serum albumin
# Escherichia coli [2] = experiment: microbe, parasite or virus in culture; type: functional; settings: isolate CAN-ICU 61714, 24 h
# Description: Antibacterial activity against Escherichia coli isolate CAN-ICU 61714 after 24 hrs by macrobroth dilution method
# Klebsiella pneumoniae [3] = experiment: microbe, parasite or virus in culture; type: functional; settings: ATCC 13883, 24 h
# Description: Antibacterial activity against Klebsiella pneumoniae ATCC 13883 after 24 hrs by macrobroth dilution method in the presence of bovine serum albumin
# Enterococcus faecalis [4] = experiment: microbe, parasite or virus in culture; type: functional; settings: ATCC 29212, 24 h
# Description: Antibacterial activity against Enterococcus faecalis ATCC 29212 after 24 hrs by macrobroth dilution method in the presence of bovine serum albumin
# Streptococcus pneumoniae [5] = experiment: microbe, parasite or virus in culture; type: functional; settings: ATCC 49619, 24 h
# Description: Antibacterial activity against Streptococcus pneumoniae ATCC 49619 after 24 hrs by macrobroth dilution method in the presence of bovine serum albumin
# [6] = system: Staphylococcus epidermidis; experiment: microbe, parasite or virus in culture; type: functional; settings: Staphylococcus epidermidis, 81388, 24 h
# Description: Antibacterial activity against methicillin-susceptible Staphylococcus epidermidis 81388 after 24 hrs by macrobroth dilution method
# [7] = system: Stenotrophomonas maltophilia; experiment: microbe, parasite or virus in culture; type: functional; settings: isolate CAN-ICU 62584, 24 h
# Description: Antibacterial activity against Stenotrophomonas maltophilia isolate CAN-ICU 62584 after 24 hrs by macrobroth dilution method in the presence of bovine serum albumin
# Staphylococcus aureus [8] = experiment: microbe, parasite or virus in culture; type: functional; settings: ATCC 29213, 24 h
# Description: Antibacterial activity against Staphylococcus aureus ATCC 29213 after 24 hrs by macrobroth dilution method in the presence of bovine serum albumin
# [9] = system: Staphylococcus epidermidis; experiment: microbe, parasite or virus in culture; type: functional, isolate CAN-ICU 61589; settings: isolate CAN-ICU61589, 24 h
# Description: Antibacterial activity against methicillin-resistant Staphylococcus epidermidis isolate CAN-ICU 61589 after 24 hrs by macrobroth dilution method in the presence of bovine serum albumin
# Enterococcus faecium [10] = experiment: microbe, parasite or virus in culture; type: functional; settings: ATCC 27270, 24 h
# Description: Antibacterial activity against Enterococcus faecium ATCC 27270 after 24 hrs by macrobroth dilution method in the presence of bovine serum albumin
# Pseudomonas aeruginosa [11] = experiment: microbe, parasite or virus in culture; type: functional; settings: isolate CAN-ICU 62308, 24 h
# Description: Antibacterial activity against Pseudomonas aeruginosa isolate CAN-ICU 62308 after 24 hrs by macrobroth dilution method in the presence of bovine serum albumin
# Staphylococcus aureus [12] = experiment: microbe, parasite or virus in culture; type: functional; settings: ATCC 33592, 24 h
# Description: Antibacterial activity against methicillin-resistant Staphylococcus aureus ATCC 33592 after 24 hrs by macrobroth dilution method
# Escherichia coli [13] = experiment: microbe, parasite or virus in culture; type: functional; settings: ATCC 25922, 24 h
# Description: Antibacterial activity against Escherichia coli ATCC 25922 after 24 hrs by macrobroth dilution method in the presence of bovine serum albumin
# Pseudomonas aeruginosa [14] = experiment: microbe, parasite or virus in culture; type: functional; settings: ATCC 27853, 24 h
# Description: Antibacterial activity against Pseudomonas aeruginosa ATCC 27853 after 24 hrs by macrobroth dilution method
# Escherichia coli [15] = experiment: microbe, parasite or virus in culture; type: functional; settings: isolate CAN-ICU 61714, 24 h; remark: listed apart in the source
# Description: Antibacterial activity against Escherichia coli isolate CAN-ICU 61714 after 24 hrs by macrobroth dilution method in the presence of bovine serum albumin
# Escherichia coli [16] = experiment: microbe, parasite or virus in culture; type: functional; settings: isolate CAN-ICU 63074, 24 h
# Description: Antibacterial activity against Escherichia coli isolate CAN-ICU 63074 after 24 hrs by macrobroth dilution method
# [17] = Toxicity in human erythrocytes assessed as hemolysis at 100 ug/ml by spectrophotometry; settings: at 100 µg/mL
# Enterococcus faecalis [18] = experiment: microbe, parasite or virus in culture; type: functional; settings: ATCC 29212, 24 h; remark: listed apart in the source
# Description: Antibacterial activity against Enterococcus faecalis ATCC 29212 after 24 hrs by macrobroth dilution method
# Klebsiella pneumoniae [19] = experiment: microbe, parasite or virus in culture; type: functional; settings: ATCC 13883, 24 h; remark: listed apart in the source
# Description: Antibacterial activity against Klebsiella pneumoniae ATCC 13883 after 24 hrs by macrobroth dilution method
# Acinetobacter baumannii [20] = experiment: microbe, parasite or virus in culture; type: functional; settings: isolate CAN-ICU 63169, 24 h; remark: listed apart in the source
# Description: Antibacterial activity against Acinetobacter baumannii 63169 isolate CAN-ICU after 24 hrs by macrobroth dilution method
# Pseudomonas aeruginosa [21] = experiment: microbe, parasite or virus in culture; type: functional; settings: ATCC 27853, 24 h; remark: listed apart in the source
# Description: Antibacterial activity against Pseudomonas aeruginosa ATCC 27853 after 24 hrs by macrobroth dilution method in the presence of bovine serum albumin
# Streptococcus pneumoniae [22] = experiment: microbe, parasite or virus in culture; type: functional; settings: ATCC 49619, 24 h; remark: listed apart in the source
# Description: Antibacterial activity against Streptococcus pneumoniae ATCC 49619 after 24 hrs by macrobroth dilution method
# Pseudomonas aeruginosa [23] = experiment: microbe, parasite or virus in culture; type: functional; settings: isolate CAN-ICU 62308, 24 h; remark: listed apart in the source
# Description: Antibacterial activity against Pseudomonas aeruginosa isolate CAN-ICU 62308 after 24 hrs by macrobroth dilution method
# Escherichia coli [24] = experiment: microbe, parasite or virus in culture; type: functional; settings: isolate CAN-ICU 63074, 24 h; remark: listed apart in the source
# Description: Antibacterial activity against Escherichia coli isolate CAN-ICU 63074 after 24 hrs by macrobroth dilution method in the presence of bovine serum albumin
# Staphylococcus aureus [25] = experiment: microbe, parasite or virus in culture; type: functional; settings: ATCC 29213, 24 h; remark: listed apart in the source
# Description: Antibacterial activity against Staphylococcus aureus ATCC 29213 after 24 hrs by macrobroth dilution method
# [26] = system: Staphylococcus epidermidis; experiment: microbe, parasite or virus in culture; type: functional; settings: Staphylococcus epidermidis, 81388, 24 h; remark: listed apart in the source
# Description: Antibacterial activity against methicillin-susceptible Staphylococcus epidermidis 81388 after 24 hrs by macrobroth dilution method in the presence of bovine serum albumin
# [27] = system: Stenotrophomonas maltophilia; experiment: microbe, parasite or virus in culture; type: functional; settings: isolate CAN-ICU 62584, 24 h; remark: listed apart in the source
# Description: Antibacterial activity against Stenotrophomonas maltophilia isolate CAN-ICU 62584 after 24 hrs by macrobroth dilution method
# [28] = system: Staphylococcus epidermidis; experiment: microbe, parasite or virus in culture; type: functional; settings: isolate CAN-ICU61589, 24 h
# Description: Antibacterial activity against methicillin-resistant Staphylococcus epidermidis isolate CAN-ICU 61589 after 24 hrs by macrobroth dilution method
# Staphylococcus aureus [29] = experiment: microbe, parasite or virus in culture; type: functional; settings: ATCC 33592, 24 h; remark: listed apart in the source
# Description: Antibacterial activity against methicillin-resistant Staphylococcus aureus ATCC 33592 after 24 hrs by macrobroth dilution method in the presence of bovine serum albumin
# Enterococcus faecium [30] = experiment: microbe, parasite or virus in culture; type: functional; settings: ATCC 27270, 24 h; remark: listed apart in the source
# Description: Antibacterial activity against Enterococcus faecium ATCC 27270 after 24 hrs by macrobroth dilution method
# Escherichia coli [31] = experiment: microbe, parasite or virus in culture; type: functional; settings: ATCC 25922, 24 h; remark: listed apart in the source
# Description: Antibacterial activity against Escherichia coli ATCC 25922 after 24 hrs by macrobroth dilution method
# Pseudomonas aeruginosa [32] = experiment: Ratio of MIC90 of neomycin sulfate to MIC90 of compound against Pseudomonas aeruginosa 62308; type: functional
# Pseudomonas aeruginosa [33] = experiment: Ratio of MIC90 of neomycin sulfate to MIC90 of compound against Pseudomonas aeruginosa ATCC 27853; type: functional
# [34] = Aqueous solubility of the compound; type: physicochemical; settings: buffer
Compound,MIC90 (Acinetobacter baumannii [1]),MIC90 (Escherichia coli [2]),MIC90 (Klebsiella pneumoniae [3]),MIC90 (Enterococcus faecalis [4]),MIC90 (Streptococcus pneumoniae [5]),MIC90 [6],MIC90 [7],MIC90 (Staphylococcus aureus [8]),MIC90 [9],MIC90 (Enterococcus faecium [10]),MIC90 (Pseudomonas aeruginosa [11]),MIC90 (Staphylococcus aureus [12]),MIC90 (Escherichia coli [13]),MIC90 (Pseudomonas aeruginosa [14]),MIC90 (Escherichia coli [15]),MIC90 (Escherichia coli [16]),hemolysis at 100 ug/ml [17],MIC90 (Enterococcus faecalis [18]),MIC90 (Klebsiella pneumoniae [19]),MIC90 (Acinetobacter baumannii [20]),other results
NC[C@@H]1O[C@H](O[C@H]2[C@@H](O)[C@H](O[C@@H]3[C@@H](O)[C@H](N)C[C@H](N)[C@H]3O[C@H]3O[C@H](CN)[C@@H](O)[C@H](O)[C@H]3N)O[C@@H]2CO)[C@H](N)[C@@H](O)[C@@H]1O.O.O=S(=O)(O)O [NEOMYCIN TRISULFATE HYDRATE],32 µg/mL,1 µg/mL,≤ 0.25 µg/mL,16 µg/mL,8 µg/mL,0.5 µg/mL,> 512 µg/mL,0.5 µg/mL,≤ 0.25 µg/mL,4 µg/mL,256 µg/mL,256 µg/mL,0.25 µg/mL,512 µg/mL,1 µg/mL,8 µg/mL,0.69%,16 µg/mL,0.25 µg/mL,64 µg/mL,MIC90 (Pseudomonas aeruginosa [21]): 256 µg/mL; MIC90 (Streptococcus pneumoniae [22]): 32 µg/mL; MIC90 (Pseudomonas aeruginosa [23]): 256 µg/mL; MIC90 (Escherichia coli [24]): 16 µg/mL; MIC90 (Staphylococcus aureus [25]): 1 µg/mL; MIC90 [26]: 0.5 µg/mL; MIC90 [27]: > 512 µg/mL; MIC90 [28]: ≤ 0.25 µg/mL; MIC90 (Staphylococcus aureus [29]): 128 µg/mL; MIC90 (Enterococcus faecium [30]): 4 µg/mL; MIC90 (Escherichia coli [31]): 4 µg/mL
CC(C)(C)CC(C)(C)c1ccc(OCc2cn(C[C@H]3O[C@@H](O[C@@H]4[C@@H](O)[C@H](N)C[C@H](N)[C@H]4O[C@H]4O[C@H](CN)[C@@H](O)[C@H](O)[C@H]4N)[C@H](O)[C@@H]3O[C@H]3O[C@@H](CN)[C@@H](O)[C@H](O)[C@H]3N)nn2)c(Cc2ccc(Cl)cc2Cl)c1,256 µg/mL,64 µg/mL,64 µg/mL,16 µg/mL,128 µg/mL,4 µg/mL,> 512 µg/mL,8 µg/mL,4 µg/mL,8 µg/mL,128 µg/mL,8 µg/mL,64 µg/mL,128 µg/mL,128 µg/mL,64 µg/mL,27.5%,8 µg/mL,64 µg/mL,64 µg/mL,MIC90 (Pseudomonas aeruginosa [21]): 512 µg/mL; Ratio (Pseudomonas aeruginosa [32]): 4; MIC90 (Streptococcus pneumoniae [22]): 64 µg/mL; MIC90 (Pseudomonas aeruginosa [23]): 64 µg/mL; Ratio (Pseudomonas aeruginosa [33]): 4; MIC90 (Escherichia coli [24]): 256 µg/mL; MIC90 (Staphylococcus aureus [25]): 8 µg/mL; MIC90 [26]: 2 µg/mL; MIC90 [27]: 512 µg/mL; MIC90 [28]: 1 µg/mL; MIC90 (Staphylococcus aureus [29]): 16 µg/mL; MIC90 (Enterococcus faecium [30]): 8 µg/mL; MIC90 (Escherichia coli [31]): 16 µg/mL
CC(C)(C)CC(C)(C)c1ccc(OCCCCc2cn(C[C@H]3O[C@@H](O[C@@H]4[C@@H](O)[C@H](N)C[C@H](N)[C@H]4O[C@H]4O[C@H](CN)[C@@H](O)[C@H](O)[C@H]4N)[C@H](O)[C@@H]3O[C@H]3O[C@@H](CN)[C@@H](O)[C@H](O)[C@H]3N)nn2)c(Cc2ccc(Cl)cc2Cl)c1,> 512 µg/mL,64 µg/mL,32 µg/mL,64 µg/mL,64 µg/mL,8 µg/mL,> 512 µg/mL,16 µg/mL,4 µg/mL,16 µg/mL,256 µg/mL,16 µg/mL,64 µg/mL,128 µg/mL,128 µg/mL,128 µg/mL,22.5%,64 µg/mL,32 µg/mL,256 µg/mL,MIC90 (Pseudomonas aeruginosa [21]): 512 µg/mL; Ratio (Pseudomonas aeruginosa [32]): 4; MIC90 (Streptococcus pneumoniae [22]): 64 µg/mL; MIC90 (Pseudomonas aeruginosa [23]): 64 µg/mL; Ratio (Pseudomonas aeruginosa [33]): 4; MIC90 (Escherichia coli [24]): 256 µg/mL; MIC90 (Staphylococcus aureus [25]): 16 µg/mL; MIC90 [26]: 4 µg/mL; MIC90 [27]: 512 µg/mL; MIC90 [28]: 8 µg/mL; MIC90 (Staphylococcus aureus [29]): 32 µg/mL; MIC90 (Enterococcus faecium [30]): 8 µg/mL; MIC90 (Escherichia coli [31]): 64 µg/mL
CC(C)(C)CC(C)(C)c1ccc(O)c(Cc2ccc(Cl)cc2Cl)c1 [CLOFOCTOL],–,–,–,–,–,–,–,–,–,–,–,–,–,–,–,–,–,–,–,–,solubility [34]: Insoluble
